Source: patent publication US7659397B2, “Pyrithione complex compound, process for producing the same and use thereof” (priority 2003, dated 2010)
Where two headings read alike, the source gives them in different places.

Tests used:
[1] = for Solubility in seawater, Molecular weight conversion / Solubility in seawater, Dissolved zinc-copper: pH = 8.2
Experimental: Formulation of artificial seawater (g/L)
0.1 g of the sample was added in 500 mL of artificial seawater, which was then stirred at 20° C. and 30° C. for 4 hours and filtered, and the filtrate was subjected to atomic absorption analysis.

[2] = system: Aspergillus niger ATCC 6275; test: Antibacterial test (MIC), agar medium; conditions: Potato dextrose agar medium, 30° C., 7 days
[3] = system: Malassezia furfur NBRC 0656; conditions: YM agar medium with olive oil, 30° C., 6 days
Experimental: (§1) Preparation of a sample: the extract was dissolved in dimethylsulfoxide, to which an aqueous 0.1 W % Tween 80 was added to make a sample solution.
YM agar medium to which olive oil is added, 30° C., 6 days

[4] = Weathering of polyethylene resin molded article (color difference, yellow index); type: physicochemical; conditions: for ΔE* / ΔYI: Sample after hung in the sun versus before; for degree of coloring: after hung in the sun, ranking
Experimental: Then, the resin materials were respectively applied to a sheet having a size of 200 mm×200 mm×1.1 mm by press molding in the condition of 140° C. and 200 kgf/cm^2. Two test pieces of 30 mm×110 mm were cut from each of the four sheets and hung in the sun from 8 a.m. to 5 p.m. for five fine weather days selected from among the term between Sep. 15 and […].

[5] = 2% by weight in purified water, well-lighted room, one week
Excerpt: (§2) The pyrithione complex compound represented by the formula (I) is used as an antidandruff agent to be formulated in hair-care products such as shampoos and hair rinses like conventional zinc pyrithione. […] Also, the zinc pyrithione/zinc oxide complex compound and zinc pyrithione were respectively added to purified water in an amount of 2% by weight and each suspension was allowed to stand in a well-lighted room to observe the degree of coloration of the suspension.

[6] = system: Staphylococcus aureus NBRC 12732; conditions: for Minimum growth inhibitive concentration of bacteria, Staphylococcus aureus: Soybean casein digest agar medium, 30° C., 5 days
Experimental: as §1
Soybean casein digest agar medium, 30° C., 5 days

[7] = system: Escherichia coli NBRC 3972; conditions: for Minimum growth inhibitive concentration of bacteria, Escherichia coli: NB agar medium with lactose, 30° C., 3 days
Experimental: as §1
NB agar medium to which lactose is added, 30° C., 3 days

[8] = system: oculus membrane mucosa; conditions: aqueous 2.0 W % suspension instilled in the eye
Excerpt: as §2

[9] = Stability in DMSO (coloring of filtrate); type: physicochemical
Experimental: 2 g of each of these four compounds was added in 10 g of DMSO, allowed to stand at ambient temperature in a laboratory and filtered, to examine coloring of the filtrate. Then, the filter residue was again added to 10 g of DMSO to carry out the same operation.

[10] = system: Pseudomonas aeruginosa IAM 1514; test: Antibacterial test (MIC), alone and combined with isothiazolone preparation; type: cell-based; conditions: Table 3, Example 16
Experimental: (§3) Preparation of a sample: the white powder is added in a fixed concentration.
(§4) Culture condition: 28° C., 24 hours, shake culture

[11] = system: Bacillus subtilis IFO 3215; test: Antibacterial test (MIC), shake culture; type: cell-based; conditions: 24 hours
Experimental: as §3, §4

[12] = system: Escherichia coli IFO 3972; test: Antibacterial test (MIC), shake culture; type: cell-based; conditions: 24 hours
Experimental: as §3, §4

[13] = Sample after hung in the sun, five days
[14] = Sample before hung in the sun, 0.15 parts in LDPE

Compound | Solubility in seawater, Molecular weight conversion ([1]; 20° C.) [µg/mL] | Solubility in seawater, Molecular weight conversion ([1]; 30° C.) [µg/mL] | Minimum growth inhibitive concentration of bacteria, Aspergillus niger [2] [mg/L] | Minimum growth inhibitive concentration of bacteria, Malassezia furfur [3] [mg/L] | ΔE* [4] | ΔYI [4] | L* [4, 13] | YI [4, 13] | a* [4, 13] | b* [4, 13] | L* [4, 14] | YI [4, 14] | a* [4, 14] | b* [4, 14] | degree of coloring [4] | degree of coloration of the suspension [5] | Minimum growth inhibitive concentration of bacteria, Staphylococcus aureus [6] [mg/L] | Minimum growth inhibitive concentration of bacteria, Escherichia coli [7] [mg/L] | Solubility in seawater, Dissolved zinc-copper ([1]; 20° C.) | further results
On1ccccc1=S.On1ccccc1=S.[Cu] [Copper pyrithione] | 0.1 | 0.2 | 20 | – | – | – | – | – | – | – | – | – | – | – | – | – | – | – | – | –
[O-2].[O-][n+]1ccccc1S.[O-][n+]1ccccc1S.[O-][n+]1ccccc1S.[O-][n+]1ccccc1S.[O-][n+]1ccccc1S.[O-][n+]1ccccc1S.[Zn+2].[Zn+2].[Zn+2].[Zn+2] [Example 3 Chloroform extract, zinc pyrithione-zinc oxide complex compound] | 3.2 | 4.3 | – | 5 | 11.52 | 19.93 | 81.92 | 21.52 | −3.05 | 11.52 | 84.78 | 1.58 | −0.28 | 0.71 | smaller | slightly yellowed | 1.25 | 10 | 0.82 (Zn) mg/L | antibacterial ability to Staphylococcus aureus ([6]; compared with zinc pyrithione): higher; antibacterial ability to Escherichia coli ([7]; compared with zinc pyrithione): higher
[Cu+2].[Cu+2].[Cu+2].[O-][n+]1ccccc1[S-].[O-][n+]1ccccc1[S-].[O-][n+]1ccccc1[S-].[O-][n+]1ccccc1[S-].[O-][n+]1ccccc1[S-].[O-][n+]1ccccc1[S-].[O]=[Cu] [Example 9 Chloroform extract, copper pyrithione/copper (II) oxide complex compound] | 0.6 | 0.6 | 5 | – | – | – | – | – | – | – | – | – | – | – | – | – | – | – | 0.14 (Cu) mg/L | Solubility in seawater, Dissolved zinc-copper ([1]; 30° C.): 0.15 (Cu) mg/L; solubility in seawater ([1]; as stated in the description): about 0.6 ppm
Zinc pyrithione | 6.1 | 7.4 | – | 5 | 20.18 | 34.00 | 82.16 | 34.70 | −5.00 | 19.68 | 86.87 | 0.71 | −0.79 | 0.51 | the largest | colored in yellow | 2.5 | 20 | – | primary irritation (criterion by the Draize method) [8]: slightly irritant; coloring of the first filtrate ([9]; 2 g in 10 g of DMSO, ambient temperature): brown appearance; coloring of the second filtrate ([9]; filter residue again added to 10 g of DMSO): brown appearance; Minimum growth inhibitive concentration of bacteria, Pseudomonas aeruginosa [10]: >1000 mg/L; Minimum growth inhibitive concentration of bacteria, Bacillus subtilis ([11]; Table 1, Example 14, 28° C.): 2.5 mg/L; Minimum growth inhibitive concentration of bacteria, Bacillus subtilis ([11]; Table 2, Example 15, 28° C.): 1 mg/L; Minimum growth inhibitive concentration of bacteria, Escherichia coli ([12]; Table 1, Example 14, 28° C.): 5 mg/L; Minimum growth inhibitive concentration of bacteria, Escherichia coli ([12]; Table 2, Example 15, 28° C.): 2.5 mg/L
